In patent US11926623B2, “Heterocycle derivatives as pesticides” (Bayer Aktiengesellschaft, priority 2018, dated 2024):
Read-outs that look alike come from different tables or passages of the source.

How the values were obtained:
Myzus persicae [1] = assay: Myzus persicae oral test; type: in vivo; settings: 120 h, mixed population of green peach aphids, after 5 days, read-out: efficacy
Method: Myzus persicae—Oral Test [table] To produce a suitable preparation of active compound, 1 part by weight of active compound is dissolved using the specified parts by weight of solvent and made up with water until the desired concentration is attained. 50 μl of the active ingredient formulation are transferred into microtitre plates and made up to a final volume of 200 μl with 150 μl of IPL41 insect medium (33%+15% sugar). Subsequently, the plates are sealed with parafilm, which a mixed population of green peach aphids (Myzus persicae) within a second microtitre plate is able to puncture and imbibe the solution through. After 5 days, the efficacy in % is determined. 100% means that all the aphids have been killed; 0% means that no aphids have been killed.

[2] = log P by HPLC on reversed-phase column (C18), EEC Directive 79/831 Annex V.A8; type: physicochemical
Method: The log P values were determined according to EEC Directive 79/831 Annex V.A8 by HPLC (high-performance liquid chromatography) on a reversed-phase column (C18) using the following methods: ^[a] […] Calibration was carried out using a homologous series of straight-chain alkan-2-ones (having 3 to 16 carbon atoms) with known log P values. The values between successive alkanones are determined by linear regression.

Ctenocephalides felis = Ctenocephalides felis oral test; type: in vivo; settings: 48 h, 100 ppm in citrated cattle blood, unfed adult cat fleas, after 2 days, read-out: efficacy (kill in %)
Method: Ctenocephalides felis—Oral Test [table] To produce a suitable active compound preparation, 10 mg of active compound are mixed with 0.5 ml of dimethyl sulfoxide. Dilution with citrated cattle blood gives the desired concentration. About 20 unfed adult cat fleas (Ctenocephalides felis) are placed into a chamber which is closed at the top and bottom with gauze. A metal cylinder whose bottom end is closed with parafilm is placed onto the chamber. The cylinder contains the blood/active compound formulation, which can be imbibed by the fleas through the parafilm membrane. After 2 days, the kill in % is determined. 100% means that all of the fleas have been killed; 0% means that none of the fleas have been killed.

Myzus persicae [3] = assay: Myzus persicae spray test; type: in vivo; settings: foliar, 120 h, sprayed Chinese cabbage leaf discs, all stages of the green peach aphid, after 5 days, read-out: efficacy
Method: Myzus persicae—Spray Test [table] To produce a suitable active compound preparation, 1 part by weight of active compound is dissolved using the stated parts by weight of solvent and made up with water containing an emulsifier concentration of 1000 ppm until the desired concentration is attained. To produce further test concentrations, the formulation is diluted with emulsifier-containing water. Discs of Chinese cabbage leaves (Brassica pekinensis) infested by all stages of the green peach aphid (Myzus persicae) are sprayed with an active compound formulation of the desired concentration. After 5 days, the efficacy in % is determined. 100% means that all the aphids have been killed; 0% means that no aphids have been killed.

Spodoptera frugiperda = Spodoptera frugiperda spray test; type: in vivo; settings: foliar, 168 h, sprayed maize leaf discs, fall armyworm caterpillars, after 7 days, read-out: efficacy
Method: Spodoptera frugiperda—Spray Test [table] To produce a suitable active compound preparation, 1 part by weight of active compound is dissolved using the stated parts by weight of solvent and made up with water containing an emulsifier concentration of 1000 ppm until the desired concentration is attained. To produce further test concentrations, the formulation is diluted with emulsifier-containing water. Leaf discs of maize (Zea mays) are sprayed with an active compound formulation of the desired concentration and, after drying, populated with caterpillars of the fall armyworm (Spodoptera frugiperda). After 7 days, the efficacy in % is determined. 100% means that all the caterpillars have been killed; 0% means that no caterpillar has been killed.

Phaedon cochleariae = Phaedon cochleariae spray test; type: in vivo; settings: 100 g/ha, sprayed Chinese cabbage leaf discs, mustard beetle larvae, after 7 days
Method: Phaedon cochleariae—Spray Test
To produce a suitable active compound preparation, 1 part by weight of active compound is dissolved using the stated parts by weight of solvent and made up with water containing an emulsifier concentration of 1000 ppm until the desired concentration is attained. To produce further test concentrations, the formulation is diluted with emulsifier-containing water.
Discs of Chinese cabbage leaves (Brassica pekinensis) are sprayed with an active compound formulation of the desired concentration and, after drying, populated with larvae of the mustard beetle (Phaedon cochleariae).
After 7 days, the efficacy in % is determined. 100% means that all the beetle larvae have been killed; 0% means that no beetle larvae have been killed.

Diabrotica balteata = Diabrotica balteata spray test; type: in vivo; settings: 168 h, 160 μg/well, sprayed germinated wheat grains, beetle larvae, after 7 days, read-out: efficacy
Method: Diabrotica balteata—Spray Test [table] To produce a suitable active compound preparation, 1 part by weight of active compound is dissolved using the stated parts by weight of solvent and made up with water containing an emulsifier concentration of 1000 ppm until the desired concentration is attained. To produce further test concentrations, the formulation is diluted with emulsifier-containing water. Pre-swollen wheat grains (Triticum aestivum) are incubated in a multiwell plate filled with agar and a little water for one day (5 seed grains per well). The germinated wheat grains are sprayed with an active compound preparation of the desired concentration. Subsequently, each cavity is infected with 10-20 beetle larvae of Diabrotica balteata. After 7 days, the efficacy in % is determined. 100% means that all wheat plants have grown as in the untreated, uninfected control; 0% means that no wheat plant has grown.

[4] = LC-UV in the acidic range, formic acid in water / acetonitrile, read-out: log P[acidic]
[5] = LC-UV in the neutral range, ammonium carbonate in water / acetonitrile, read-out: log P[neutral]

chromatographic logP [2, 4] | chromatographic logP [2, 5] | SMILES | pest or weed control at 4 ppm (Myzus persicae [1]) | pest or weed control at 100 ppm (Ctenocephalides felis) | pest or weed control at 100 g/ha (Myzus persicae [3]) | pest or weed control at 100 g/ha (Spodoptera frugiperda) | efficacy (Phaedon cochleariae) | pest or weed control at 160 µg/disc, 160 µg/well (Diabrotica balteata)
2.73 | 2.72 | CCS(=O)(=O)c1c(-c2nc3cc(C(F)(F)F)cnc3n2C)nc(C2CC(C3CC3)=NO2)n1C (centres unmarked) [Example I-1, 2-[2-(3-Cyclopropyl-4,5-dihydro-1,2-oxazol-5-yl)-5-(ethylsulfonyl)-1-methyl-1H-imidazol-4-yl]-3-methyl-6-(trifluoromethyl)-3H-imidazo[4,5-b]pyridine] | 100% | 100% | 100% | – | – | –
– | – | CCS(=O)(=O)c1c(-c2nc3cc(C(F)(F)F)cnc3n2C)nc(C2CC(c3ccc(Cl)cc3)=NO2)n1C (centres unmarked) [Example I-2] | 100% | – | – | 100% | – | –
– | – | CCS(=O)(=O)c1c(-c2nc3cc(C(F)(F)F)cnc3n2C)nc(C2CC(c3ccccn3)=NO2)n1C (centres unmarked) [Example I-3] | 100% | – | 90% | 100% | – | –
– | – | CCS(=O)(=O)c1c(-c2nc3cc(C(F)(F)F)cnc3n2C)nc(C2CC(c3cccnc3)=NO2)n1C (centres unmarked) [Example I-4] | 100% | – | 100% | – | – | –
3.14 | 3.07 | CCS(=O)(=O)c1c(-c2nc3cc(C(F)(F)F)cnc3n2C)nc(-c2ccc(C3(C#N)CC3)cc2)n1C [Example I-5, 1-(4-{5-(Ethylsulfonyl)-1-methyl-4-[3-methyl-6-(trifluoromethyl)-3H-imidazo[4,5-b]pyridin-2-yl]-1H-imidazol-2-yl}phenyl)cyclopropanecarbonitrile] | 100% | 100% | 100% | 100% | 100% | –
– | – | CCS(=O)(=O)c1c(-c2nc3cc(C(F)(F)F)cnc3n2C)nc(-c2ccnn2C2CC2)n1C [Example I-7] | 100% | – | 90% | – | 100% | –
– | – | CCS(=O)(=O)c1c(-c2nc3cc(C(F)(F)F)cnc3n2C)nc(-c2ccc(C3CC3)s2)n1C [Example I-8] | 100% | 80% | 100% | 100% | – | –
– | – | CCS(=O)(=O)c1c(-c2nc3cc(C(F)(F)F)cnc3n2C)nc(-c2ccc(-c3ccccc3)s2)n1C [Example I-11] | 100% | 90% | 90% | 100% | – | –
– | – | CCS(=O)(=O)c1c(-c2nc3cc(C(F)(F)F)cnc3n2C)nc(-c2cccc(C3(C#N)CC3)c2)n1C [Example I-12] | 100% | – | 90% | 100% | – | 100%
– | – | CCS(=O)(=O)c1c(-c2nc3cc(C(F)(F)F)cnc3n2C)nc(-c2ccc(-c3cccs3)s2)n1C [Example I-13] | 100% | – | 90% | – | – | 80%
– | – | CCS(=O)(=O)c1c(-c2nc3cc(C(F)(F)F)cnc3n2C)nc(-c2ccc(C3CC3)nc2)n1C [Example I-14] | 100% | 90% | 90% | 100% | 100% | –
– | – | CCS(=O)(=O)c1c(-c2nc3cc(C(F)(F)C(F)(F)F)cnc3n2C)nc(-c2ccc(C3(C#N)CC3)cc2)n1C [Example I-15] | 100% | – | 90% | 100% | – | 100%
– | – | CCS(=O)(=O)c1c(-c2nc3cc(C(F)(F)C(F)(F)F)cnc3n2C)nc(-c2cnn(C3CC3)c2)n1C [Example I-16] | 100% | – | 90% | 100% | – | 100%
– | – | CCS(=O)(=O)c1c(-c2nc3cc(C(F)(F)C(F)(F)F)cnc3n2C)nc(-c2cnn(-c3ccc(F)cc3)c2)n1C [Example I-17] | 100% | – | – | 100% | – | 100%
– | – | CCS(=O)(=O)c1c(-c2nc3cc(C(F)(F)C(F)(F)F)cnc3n2C)nc(-c2cnn(-c3ccccc3C#N)c2)n1C [Example I-18] | 100% | – | 70% | 100% | – | 80%
– | – | CCS(=O)(=O)c1c(-c2nc3cc(C(F)(F)C(F)(F)F)cnc3n2C)nc(-c2cnn(-c3cccc(C#N)c3)c2)n1C [Example I-19] | 100% | – | – | 100% | – | 100%
– | – | CCS(=O)(=O)c1c(-c2nc3cc(C(F)(F)C(F)(F)F)cnc3n2C)nc(-c2cnn(-c3cncc(F)c3)c2)n1C [Example I-20] | 100% | – | 100% | 100% | – | 100%
– | – | CCS(=O)(=O)c1c(-c2nc3cc(C(F)(F)C(F)(F)F)cnc3n2C)nc(-n2ccc(C3CC3)n2)n1C [Example I-21] | 100% | – | 90% | 100% | – | 100%
– | – | CCS(=O)(=O)c1c(-c2nc3cc(C(F)(F)C(F)(F)F)cnc3n2C)nc(-c2ccc(C3CC3)nc2)n1C [Example I-22] | 100% | – | 90% | 100% | – | 100%
– | – | CCS(=O)(=O)c1c(-c2nc3cc(C(F)(F)C(F)(F)F)cnc3n2C)nc(-c2cccc(N3CCOCC3)n2)n1C [Example I-23] | 100% | – | – | 100% | – | 100%
– | – | CCS(=O)(=O)c1c(-c2nc3cc(C(F)(F)C(F)(F)F)cnc3n2C)nc(-c2cccc(C3(C#N)CC3)c2)n1C [Example I-24] | 100% | – | – | 100% | – | 100%
– | – | CCS(=O)(=O)c1c(-c2nc3cc(C(F)(F)C(F)(F)F)cnc3n2C)nc(-n2cc(C#N)c(-c3ccccc3F)c2)n1C [Example I-25] | – | – | – | 100% | – | 100%
– | – | CCS(=O)(=O)c1c(-c2nc3cc(C(F)(F)C(F)(F)F)cnc3n2C)nc(-n2cc(C#N)c(-c3ccc(F)cc3)c2)n1C [Example I-26] | 100% | – | – | 100% | – | 100%
